Measured values from article PMC3399817 (PLoS ONE, 2012).

Tests used:
Test in all cases: KINOMEscan
Assay type in all cases: binding
PIK3CA = biological target: T1, PIK3CA (Homo sapiens, UniProt P42336); conditions: 1 uM
T1 construct: purchased Ambit KINOMEscan (DiscoverX)
In short: (§1)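 Substrate-binding inhibition measured with compound present at 1 μM, single concentration, to pick out affected kinases.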

MEK6 = biological target: T2, MEK6 (Homo sapiens, UniProt P52564); conditions: MEK6, 1 uM
T2 construct: purchased Ambit KINOMEscan (DiscoverX)
In short: as §1

EPHB4 = biological target: T3, EPHB4 (Homo sapiens, UniProt P54760); conditions: EPHB4, 1 uM
T3 construct: purchased Ambit KINOMEscan (DiscoverX)
In short: as §1

CAMKK2 = biological target: T4, CAMKK2 (Homo sapiens, UniProt Q96RR4); conditions: CAMKK2, 1 uM
T4 construct: purchased Ambit KINOMEscan (DiscoverX)
In short: as §1

CAMK1D = biological target: T5, CAMK1D (Homo sapiens, UniProt Q8IU85); conditions: 1 uM
T5 construct: purchased Ambit KINOMEscan (DiscoverX)
In short: as §1

PIK3CA(C420R) = biological target: T6, PIK3CA(C420R) (Homo sapiens, UniProt P42336, C420R); conditions: 1 uM
T6 construct: purchased Ambit KINOMEscan (DiscoverX)
In short: as §1

SRPK1 = biological target: T7, SRPK1 (Homo sapiens, UniProt Q96SB4); conditions: SRPK1, 1 uM
T7 construct: purchased Ambit KINOMEscan (DiscoverX)
T7 sequence (Q96SB4 whole entry): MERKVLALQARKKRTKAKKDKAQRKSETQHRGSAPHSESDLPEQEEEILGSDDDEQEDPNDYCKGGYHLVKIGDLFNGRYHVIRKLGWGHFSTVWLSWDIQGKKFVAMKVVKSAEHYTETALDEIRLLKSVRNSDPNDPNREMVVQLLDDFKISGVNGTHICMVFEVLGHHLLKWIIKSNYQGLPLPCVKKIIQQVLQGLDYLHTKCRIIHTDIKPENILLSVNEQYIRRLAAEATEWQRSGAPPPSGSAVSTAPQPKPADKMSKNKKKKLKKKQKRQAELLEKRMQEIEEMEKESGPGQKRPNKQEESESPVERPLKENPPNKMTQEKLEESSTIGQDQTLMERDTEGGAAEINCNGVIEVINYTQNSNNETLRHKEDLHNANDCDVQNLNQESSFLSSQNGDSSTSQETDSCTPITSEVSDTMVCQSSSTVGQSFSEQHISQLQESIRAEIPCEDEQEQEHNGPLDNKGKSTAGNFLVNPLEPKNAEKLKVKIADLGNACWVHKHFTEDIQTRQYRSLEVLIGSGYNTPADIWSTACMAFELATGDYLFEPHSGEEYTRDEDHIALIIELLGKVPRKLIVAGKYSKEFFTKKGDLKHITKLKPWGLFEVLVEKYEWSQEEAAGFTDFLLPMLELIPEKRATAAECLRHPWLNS
In short: as §1

NDR2 = biological target: T8, NDR2 (Homo sapiens, UniProt Q9Y2H1); conditions: NDR2, 1 uM
T8 construct: purchased Ambit KINOMEscan (DiscoverX)
In short: as §1

TGFBR1 = biological target: T9, TGFBR1 (Homo sapiens, UniProt P36897); conditions: TGFBR1, 1 uM
T9 construct: purchased Ambit KINOMEscan (DiscoverX)
In short: as §1

HIPK1 = biological target: T10, HIPK1 (Homo sapiens, UniProt Q86Z02); conditions: for % binding compared to no inhibitor control: HIPK1, 1 uM
T10 construct: purchased Ambit KINOMEscan (DiscoverX)
T10 sequence (Q86Z02 whole entry): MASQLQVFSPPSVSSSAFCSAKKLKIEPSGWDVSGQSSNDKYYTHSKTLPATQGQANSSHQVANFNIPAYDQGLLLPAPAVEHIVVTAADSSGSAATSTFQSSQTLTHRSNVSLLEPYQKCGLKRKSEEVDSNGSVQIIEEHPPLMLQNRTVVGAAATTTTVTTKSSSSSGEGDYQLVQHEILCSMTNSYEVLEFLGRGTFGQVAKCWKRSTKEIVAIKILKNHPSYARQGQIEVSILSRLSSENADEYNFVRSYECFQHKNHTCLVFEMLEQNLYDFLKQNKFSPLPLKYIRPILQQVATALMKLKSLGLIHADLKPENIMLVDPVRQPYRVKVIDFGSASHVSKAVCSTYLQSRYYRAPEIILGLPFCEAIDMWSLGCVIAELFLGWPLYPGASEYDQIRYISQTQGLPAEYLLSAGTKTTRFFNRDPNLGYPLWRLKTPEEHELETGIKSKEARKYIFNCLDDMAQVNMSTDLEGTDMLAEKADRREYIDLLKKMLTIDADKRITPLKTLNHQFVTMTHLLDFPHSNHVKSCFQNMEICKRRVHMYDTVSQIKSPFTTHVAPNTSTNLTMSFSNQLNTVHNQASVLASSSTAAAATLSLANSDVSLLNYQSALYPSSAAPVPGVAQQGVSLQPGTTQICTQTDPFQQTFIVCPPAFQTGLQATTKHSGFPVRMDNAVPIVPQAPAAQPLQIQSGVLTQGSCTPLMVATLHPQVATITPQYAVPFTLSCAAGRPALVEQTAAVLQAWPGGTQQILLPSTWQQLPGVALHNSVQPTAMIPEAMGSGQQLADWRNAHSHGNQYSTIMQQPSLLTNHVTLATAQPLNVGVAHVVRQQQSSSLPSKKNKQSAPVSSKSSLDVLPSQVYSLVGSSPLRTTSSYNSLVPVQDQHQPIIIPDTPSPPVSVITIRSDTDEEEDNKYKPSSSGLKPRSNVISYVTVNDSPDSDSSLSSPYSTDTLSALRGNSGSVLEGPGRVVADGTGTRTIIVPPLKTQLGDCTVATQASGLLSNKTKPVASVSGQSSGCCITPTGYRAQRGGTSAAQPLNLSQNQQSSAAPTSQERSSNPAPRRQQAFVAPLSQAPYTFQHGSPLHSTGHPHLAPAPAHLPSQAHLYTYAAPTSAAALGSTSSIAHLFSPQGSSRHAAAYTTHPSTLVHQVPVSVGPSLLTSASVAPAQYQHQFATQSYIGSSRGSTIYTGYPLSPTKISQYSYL
In short: as §1

PDGFRA = biological target: T11, PDGFRA (Homo sapiens, UniProt P16234); conditions: 1 uM
T11 construct: purchased Ambit KINOMEscan (DiscoverX)
In short: as §1

PRKG1 = biological target: T12, PRKG1 (Homo sapiens, UniProt Q13976); conditions: PRKG1, 1 uM
T12 construct: purchased Ambit KINOMEscan (DiscoverX)
T12 sequence (Q13976 whole entry): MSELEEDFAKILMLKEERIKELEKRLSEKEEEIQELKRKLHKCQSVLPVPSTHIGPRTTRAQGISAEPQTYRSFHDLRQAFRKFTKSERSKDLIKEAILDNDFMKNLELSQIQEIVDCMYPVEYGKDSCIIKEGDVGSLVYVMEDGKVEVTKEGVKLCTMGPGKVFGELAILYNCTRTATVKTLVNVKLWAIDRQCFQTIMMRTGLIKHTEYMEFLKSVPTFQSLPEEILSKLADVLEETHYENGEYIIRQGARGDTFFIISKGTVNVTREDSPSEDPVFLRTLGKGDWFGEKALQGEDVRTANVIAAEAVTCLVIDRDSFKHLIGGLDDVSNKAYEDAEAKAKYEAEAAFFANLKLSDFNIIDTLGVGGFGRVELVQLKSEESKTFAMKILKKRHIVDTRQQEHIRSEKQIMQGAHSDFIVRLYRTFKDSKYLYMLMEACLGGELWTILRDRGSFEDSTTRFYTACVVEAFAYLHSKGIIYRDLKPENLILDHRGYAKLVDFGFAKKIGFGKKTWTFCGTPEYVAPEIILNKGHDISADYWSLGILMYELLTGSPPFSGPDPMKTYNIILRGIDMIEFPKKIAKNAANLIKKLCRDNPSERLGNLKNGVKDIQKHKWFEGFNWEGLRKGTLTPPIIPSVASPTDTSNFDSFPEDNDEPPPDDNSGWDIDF
In short: as §1

PIK3C2B = biological target: T13, PIK3C2B (Homo sapiens, UniProt O00750); conditions: 1 uM
T13 construct: purchased Ambit KINOMEscan (DiscoverX)
In short: as §1

STK35 = biological target: T14, STK35 (Homo sapiens, UniProt Q8TDR2); conditions: STK35, 1 uM
T14 construct: purchased Ambit KINOMEscan (DiscoverX)
T14 sequence (Q8TDR2 whole entry): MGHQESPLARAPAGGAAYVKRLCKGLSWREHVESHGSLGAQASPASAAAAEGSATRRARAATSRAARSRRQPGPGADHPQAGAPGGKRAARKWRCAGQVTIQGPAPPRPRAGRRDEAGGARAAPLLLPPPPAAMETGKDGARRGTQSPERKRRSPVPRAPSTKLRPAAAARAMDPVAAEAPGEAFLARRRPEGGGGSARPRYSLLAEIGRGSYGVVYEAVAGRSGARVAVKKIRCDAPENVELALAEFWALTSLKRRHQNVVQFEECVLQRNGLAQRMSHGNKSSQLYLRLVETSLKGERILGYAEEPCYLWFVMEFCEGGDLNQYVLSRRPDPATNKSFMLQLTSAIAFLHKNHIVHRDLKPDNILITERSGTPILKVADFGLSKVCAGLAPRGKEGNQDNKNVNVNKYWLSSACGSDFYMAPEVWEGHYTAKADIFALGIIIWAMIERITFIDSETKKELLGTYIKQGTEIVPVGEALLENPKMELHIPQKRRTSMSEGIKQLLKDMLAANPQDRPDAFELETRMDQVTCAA
In short: as §1

[1] = biological target: T15, RPS6KA1(Kin.Dom.1-N-terminal) (Homo sapiens, UniProt Q15418); conditions: 1 uM
T15 construct: RPS6KA1(Kin.Dom.1-N-terminal); purchased Ambit KINOMEscan (DiscoverX)
In short: as §1

ACVR2B = biological target: T16, ACVR2B (Homo sapiens, UniProt Q13705); conditions: 1 uM
T16 construct: purchased Ambit KINOMEscan (DiscoverX)
In short: as §1

HIPK2 = biological target: T17, HIPK2 (Homo sapiens, UniProt Q9H2X6); conditions: for % binding compared to no inhibitor control: HIPK2, 1 uM
T17 construct: purchased Ambit KINOMEscan (DiscoverX)
T17 sequence (Q9H2X6 whole entry): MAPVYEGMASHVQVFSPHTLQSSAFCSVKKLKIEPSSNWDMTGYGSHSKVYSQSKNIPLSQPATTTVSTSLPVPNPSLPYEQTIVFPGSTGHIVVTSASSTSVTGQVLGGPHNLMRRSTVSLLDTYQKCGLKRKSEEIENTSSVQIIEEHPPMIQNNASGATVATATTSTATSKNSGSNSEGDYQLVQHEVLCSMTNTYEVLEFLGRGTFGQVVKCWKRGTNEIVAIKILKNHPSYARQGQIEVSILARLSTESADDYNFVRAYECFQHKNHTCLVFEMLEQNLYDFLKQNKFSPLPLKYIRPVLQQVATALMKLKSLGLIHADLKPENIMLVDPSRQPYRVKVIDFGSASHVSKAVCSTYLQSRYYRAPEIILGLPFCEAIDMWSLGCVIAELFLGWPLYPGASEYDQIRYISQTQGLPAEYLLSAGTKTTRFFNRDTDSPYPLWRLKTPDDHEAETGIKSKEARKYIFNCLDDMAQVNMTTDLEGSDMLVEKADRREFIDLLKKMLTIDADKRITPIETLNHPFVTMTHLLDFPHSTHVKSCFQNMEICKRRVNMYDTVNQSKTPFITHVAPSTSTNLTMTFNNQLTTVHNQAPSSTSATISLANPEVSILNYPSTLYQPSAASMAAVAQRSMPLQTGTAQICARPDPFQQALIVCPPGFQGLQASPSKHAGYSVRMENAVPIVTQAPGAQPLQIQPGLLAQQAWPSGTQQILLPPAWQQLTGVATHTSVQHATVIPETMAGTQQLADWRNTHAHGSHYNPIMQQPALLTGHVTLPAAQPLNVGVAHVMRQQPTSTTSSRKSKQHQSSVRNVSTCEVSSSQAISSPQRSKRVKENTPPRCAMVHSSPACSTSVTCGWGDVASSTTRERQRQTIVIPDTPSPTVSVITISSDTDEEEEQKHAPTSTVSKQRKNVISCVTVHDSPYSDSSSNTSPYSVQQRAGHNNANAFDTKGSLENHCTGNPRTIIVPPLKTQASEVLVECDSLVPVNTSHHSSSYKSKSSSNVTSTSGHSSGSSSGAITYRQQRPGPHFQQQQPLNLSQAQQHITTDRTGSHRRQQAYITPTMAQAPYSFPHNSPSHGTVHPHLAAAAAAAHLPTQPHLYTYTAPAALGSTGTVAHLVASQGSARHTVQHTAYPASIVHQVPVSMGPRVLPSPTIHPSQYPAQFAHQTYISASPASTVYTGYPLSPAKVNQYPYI
In short: as §1

FAK = biological target: T18, FAK (Homo sapiens, UniProt Q05397); conditions: 1 uM
T18 construct: purchased Ambit KINOMEscan (DiscoverX)
In short: as §1

PIK3CA(M1043I) = biological target: T19, PIK3CA(M1043I) (Homo sapiens, UniProt P42336, M1043I); conditions: 1 uM
T19 construct: purchased Ambit KINOMEscan (DiscoverX)
In short: as §1

HIPK4 = biological target: T20, HIPK4 (Homo sapiens, UniProt Q8NE63); conditions: HIPK4, 1 uM
T20 construct: purchased Ambit KINOMEscan (DiscoverX)
In short: as §1

AKT1 = biological target: T21, AKT1 (Homo sapiens, UniProt P31749); conditions: AKT1, 1 uM
T21 construct: purchased Ambit KINOMEscan (DiscoverX)
In short: as §1

SgK110 = biological target: T22, SgK110 (Homo sapiens, UniProt P0C264); conditions: SgK110, 1 uM
T22 construct: purchased Ambit KINOMEscan (DiscoverX)
In short: as §1

MLK1 = biological target: T23, MLK1 (Homo sapiens, UniProt P80192); conditions: MLK1, 1 uM
T23 construct: purchased Ambit KINOMEscan (DiscoverX)
In short: as §1

LTK = biological target: T24, LTK (Homo sapiens, UniProt P29376); conditions: 1 uM
T24 construct: purchased Ambit KINOMEscan (DiscoverX)
In short: as §1

AMPK-alpha2 = biological target: T25, AMPK-alpha2 (Homo sapiens, UniProt P54646); conditions: AMPK-alpha2, 1 uM
T25 construct: purchased Ambit KINOMEscan (DiscoverX)
In short: as §1

MARK4 = biological target: T26, MARK4 (Homo sapiens, UniProt Q96L34); conditions: MARK4, 1 uM
T26 construct: purchased Ambit KINOMEscan (DiscoverX)
In short: as §1

EPHA1 = biological target: T27, EPHA1 (Homo sapiens, UniProt P21709); conditions: EPHA1, 1 uM
T27 construct: purchased Ambit KINOMEscan (DiscoverX)
In short: as §1

PRKCE = biological target: T28, PRKCE (Homo sapiens, UniProt Q02156); conditions: 1 uM
T28 construct: purchased Ambit KINOMEscan (DiscoverX)
T28 sequence (Q02156 whole entry): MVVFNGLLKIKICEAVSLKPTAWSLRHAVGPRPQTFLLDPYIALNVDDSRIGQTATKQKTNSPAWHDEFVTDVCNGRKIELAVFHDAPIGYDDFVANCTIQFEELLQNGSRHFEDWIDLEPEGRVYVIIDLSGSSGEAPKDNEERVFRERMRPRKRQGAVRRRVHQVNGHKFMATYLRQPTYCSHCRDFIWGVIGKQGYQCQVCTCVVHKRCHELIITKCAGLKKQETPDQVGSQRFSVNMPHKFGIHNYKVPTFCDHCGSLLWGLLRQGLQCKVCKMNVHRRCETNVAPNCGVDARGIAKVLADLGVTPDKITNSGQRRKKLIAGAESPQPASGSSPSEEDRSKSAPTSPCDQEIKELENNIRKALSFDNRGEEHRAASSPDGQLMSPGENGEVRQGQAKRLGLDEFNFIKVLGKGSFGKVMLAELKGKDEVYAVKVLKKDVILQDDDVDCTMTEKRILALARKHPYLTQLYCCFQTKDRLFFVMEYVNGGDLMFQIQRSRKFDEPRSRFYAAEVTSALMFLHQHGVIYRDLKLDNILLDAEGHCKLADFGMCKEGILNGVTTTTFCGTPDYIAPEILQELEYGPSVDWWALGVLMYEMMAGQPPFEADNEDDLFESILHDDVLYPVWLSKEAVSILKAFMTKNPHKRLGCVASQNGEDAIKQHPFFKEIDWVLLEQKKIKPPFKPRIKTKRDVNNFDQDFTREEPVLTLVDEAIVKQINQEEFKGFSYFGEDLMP
In short: as §1

PRKCD = biological target: T29, PRKCD (Homo sapiens, UniProt Q05655); conditions: 1 uM
T29 construct: purchased Ambit KINOMEscan (DiscoverX)
In short: as §1

BRAF = biological target: T30, BRAF (Homo sapiens, UniProt P15056); conditions: 1 uM
T30 construct: purchased Ambit KINOMEscan (DiscoverX)
In short: as §1

PRKD3 = biological target: T31, PRKD3 (Homo sapiens, UniProt O94806); conditions: PRKD3, 1 uM
T31 construct: purchased Ambit KINOMEscan (DiscoverX)
In short: as §1

WEE2 = biological target: T32, WEE2 (Homo sapiens, UniProt P0C1S8); conditions: WEE2, 1 uM
T32 construct: purchased Ambit KINOMEscan (DiscoverX)
In short: as §1

PFTK1 = biological target: T33, PFTK1 (Homo sapiens, UniProt O94921); conditions: PFTK1, 1 uM
T33 construct: purchased Ambit KINOMEscan (DiscoverX)
In short: as §1

PRKG2 = biological target: T34, PRKG2 (Homo sapiens, UniProt Q13237); conditions: PRKG2, 1 uM
T34 construct: purchased Ambit KINOMEscan (DiscoverX)
In short: as §1

MAP4K3 = biological target: T35, MAP4K3 (Homo sapiens, UniProt Q8IVH8); conditions: MAP4K3, 1 uM
T35 construct: purchased Ambit KINOMEscan (DiscoverX)
In short: as §1

MINK = biological target: T36, MINK (Homo sapiens, UniProt Q8N4C8); conditions: 1 uM
T36 construct: purchased Ambit KINOMEscan (DiscoverX)
In short: as §1

SIK2 = biological target: T37, SIK2 (Homo sapiens, UniProt Q9H0K1); conditions: SIK2, 1 uM
T37 construct: purchased Ambit KINOMEscan (DiscoverX)
In short: as §1

SLK = biological target: T38, SLK (Homo sapiens, UniProt Q9H2G2); conditions: 1 uM
T38 construct: purchased Ambit KINOMEscan (DiscoverX)
In short: as §1

FRK = biological target: T39, FRK (Homo sapiens, UniProt P42685); conditions: 1 uM
T39 construct: purchased Ambit KINOMEscan (DiscoverX)
In short: as §1

For `COc1ccc(-c2cc3nccn3c(Nc3ncccc3C(N)=O)n2)cc1OC.Cl.Cl` [BAY61-3606, 2-[7-(3,4-dimethoxyphenyl)-imidazo [1,2-c]pyrimidin-5-ylamino] nicotinamide dihydrochloride, reference compound], the “% binding compared to no inhibitor control” value (PIK3CA) was 92%, the “% binding compared to no inhibitor control” value (MEK6) was 40% and the “% binding compared to no inhibitor control” value (EPHB4) was 86%. The “% binding compared to no inhibitor control” value (CAMKK2) was 51%, the “% binding compared to no inhibitor control” value (CAMK1D) was 72% and the “% binding compared to no inhibitor control” value (PIK3CA(C420R)) was 100%. For the same molecule, the “% binding compared to no inhibitor control” value (SRPK1) was 88%, the “% binding compared to no inhibitor control” value (NDR2) was 68% and the “% binding compared to no inhibitor control” value (TGFBR1) was 99%. For the same molecule, the “% binding compared to no inhibitor control” value (HIPK1) was 8.8%, the “% inhibition ATP binding” value (HIPK1; HIPK1, KINOMEscan, 1 μM) was 91.2% and the “% binding compared to no inhibitor control” value (PDGFRA) was 67%. For the same molecule, the “% binding compared to no inhibitor control” value (PRKG1) was 70%, the “% binding compared to no inhibitor control” value (PIK3C2B) was 60% and the “% binding compared to no inhibitor control” value (STK35) was 88%. The “% binding compared to no inhibitor control” value [1] was 96%, the “% binding compared to no inhibitor control” value (ACVR2B) was 77% and the “% binding compared to no inhibitor control” value (HIPK2) was 9%. The “% inhibition ATP binding” value (HIPK2; HIPK2, KINOMEscan, 1 μM) was 91%, the “% binding compared to no inhibitor control” value (FAK) was 69% and the “% binding compared to no inhibitor control” value (PIK3CA(M1043I)) was 80%. For the same molecule, the “% binding compared to no inhibitor control” value (HIPK4) was 29%, the “% binding compared to no inhibitor control” value (AKT1) was 93% and the “% binding compared to no inhibitor control” value (SgK110) was 100%. For the same molecule, the “% binding compared to no inhibitor control” value (MLK1) was 100%, the “% binding compared to no inhibitor control” value (LTK) was 46% and the “% binding compared to no inhibitor control” value (AMPK-alpha2) was 83%. The “% binding compared to no inhibitor control” value (MARK4) was 88%, the “% binding compared to no inhibitor control” value (EPHA1) was 81% and the “% binding compared to no inhibitor control” value (PRKCE) was 30%. For the same molecule, the “% binding compared to no inhibitor control” value (PRKCD) was 94%, the “% binding compared to no inhibitor control” value (BRAF) was 90% and the “% binding compared to no inhibitor control” value (PRKD3) was 37%. The “% binding compared to no inhibitor control” value (WEE2) was 100%, the “% binding compared to no inhibitor control” value (PFTK1) was 100% and the “% binding compared to no inhibitor control” value (PRKG2) was 70%. For the same molecule, the “% binding compared to no inhibitor control” value (MAP4K3) was 97%, the “% binding compared to no inhibitor control” value (MINK) was 62% and the “% binding compared to no inhibitor control” value (SIK2) was 100%. For the same molecule, the “% binding compared to no inhibitor control” value (SLK) was 58% and the “% binding compared to no inhibitor control” value (FRK) was 100%.
With `COc1ccccc1Nc1nc(-c2ccc(OC)c(OC)c2)cc2nccn12` [BAY derivative 6] the “% binding compared to no inhibitor control” value (PIK3CA) was 100%, the “% binding compared to no inhibitor control” value (MEK6) was 97% and the “% binding compared to no inhibitor control” value (EPHB4) was 97%. The “% binding compared to no inhibitor control” value (CAMKK2) was 100%, the “% binding compared to no inhibitor control” value (CAMK1D) was 100% and the “% binding compared to no inhibitor control” value (PIK3CA(C420R)) was 100%. The “% binding compared to no inhibitor control” value (SRPK1) was 75%, the “% binding compared to no inhibitor control” value (NDR2) was 93% and the “% binding compared to no inhibitor control” value (TGFBR1) was 99%. For the same molecule, the “% binding compared to no inhibitor control” value (HIPK1) was 85%, the “% binding compared to no inhibitor control” value (PDGFRA) was 100% and the “% binding compared to no inhibitor control” value (PRKG1) was 100%. The “% binding compared to no inhibitor control” value (PIK3C2B) was 100%, the “% binding compared to no inhibitor control” value (STK35) was 91% and the “% binding compared to no inhibitor control” value [1] was 82%. For the same molecule, the “% binding compared to no inhibitor control” value (ACVR2B) was 100%, the “% binding compared to no inhibitor control” value (HIPK2) was 100% and the “% binding compared to no inhibitor control” value (FAK) was 95%. For the same molecule, the “% binding compared to no inhibitor control” value (PIK3CA(M1043I)) was 100%, the “% binding compared to no inhibitor control” value (HIPK4) was 98% and the “% binding compared to no inhibitor control” value (AKT1) was 91%. The “% binding compared to no inhibitor control” value (SgK110) was 100%, the “% binding compared to no inhibitor control” value (MLK1) was 100% and the “% binding compared to no inhibitor control” value (LTK) was 30%. The “% binding compared to no inhibitor control” value (AMPK-alpha2) was 100%, the “% binding compared to no inhibitor control” value (MARK4) was 75% and the “% binding compared to no inhibitor control” value (EPHA1) was 81%. For the same molecule, the “% binding compared to no inhibitor control” value (PRKCE) was 100%, the “% binding compared to no inhibitor control” value (PRKCD) was 100% and the “% binding compared to no inhibitor control” value (BRAF) was 100%. The “% binding compared to no inhibitor control” value (PRKD3) was 100%, the “% binding compared to no inhibitor control” value (WEE2) was 100% and the “% binding compared to no inhibitor control” value (PFTK1) was 100%. For the same molecule, the “% binding compared to no inhibitor control” value (PRKG2) was 100%, the “% binding compared to no inhibitor control” value (MAP4K3) was 100% and the “% binding compared to no inhibitor control” value (MINK) was 100%. For the same molecule, the “% binding compared to no inhibitor control” value (SIK2) was 64%, the “% binding compared to no inhibitor control” value (SLK) was 28% and the “% binding compared to no inhibitor control” value (FRK) was 84%.
